# Patent US7595398B2, “N-(5-membered aromatic ring)-amido anti-viral compounds” (SmithKline Beecham Corporation, priority 2005, dated 2009)
# Counter-ions that a name gives are not always drawn.
# Test system: HCV replicon I389luc-ubi-neo/NS3-3′/ET in ET (Huh-lucubineo-ET) cells; screening for HCV RNA dependent RNA polymerase
# Test: Replicon Assay (luciferase, ET cell line Huh-lucubineo-ET)
# Type: cell-based
# Conditions: Hepatitis C virus; inhibition of replication relative to no compound control; test concentration of 10 μM according to the fitted equation; luciferase 48-72 hours
# Method: A cell line, ET (Huh-lucubineo-ET) was used for screening of compounds of the present invention for HCV RNA dependent RNA polymerase. The ET cell line was stably transfected with RNA transcripts harboring a I389luc-ubi-neo/NS3-3′/ET; replicon with firefly luciferase-ubiquitin-neomycin phosphotransferase fusion protein and EMCV-IRES driven NS3-5B polyprotein containing the cell culture adaptive mutations (E1202G; T12801; K1846T) (Krieger at al, 2001 and unpublished). The ET cells were grown in DMEM, supplemented with 10% fetal calf serum, 2 mM Glutamine, Penicillin (100 IU/mL)/Streptomycin (100 μg/mL), 1× nonessential amino acids, and 250 μg/mL G418 (“Geneticin”). They were all available through Life Technologies (Bethesda, Md.). The cells were plated at 0.5-1.0×10^4 cells/well in the 96 well plates and incubated for 24 hrs before adding nucleoside analogs. […] Luciferase activity were measured 48-72 hours later by adding a lysis buffer and the substrate (Catalog number Glo-lysis buffer E2661 and Bright-Glo luciferase system E2620 Promega, Madison, Wis.). Cells should not be too confluent during the assay. Percent inhibition of replication was plotted relative to no compound control. Under the same condition, cytotoxicity of the compounds was determined using cell proliferation reagent, WST-1(Roche, Germany). The compounds showing antiviral activities, but no significant cytotoxicities were chosen to determine IC50 and TC50. For these determinations, 10 concentrations of each compound were used. Concentrations for test compounds typically span a range of 500 fold. IC50 and TC50 values were calculated by fitting % inhibition at each concentration (I) to the following equation: % inhibition=100%/[1+10^(log IC50−log (I))*b] where b is Hill's coefficient.
row,Compound,inhibition at 10 µM
1,"O=C(Nc1nc(-c2ccc(NCC3CC3)cc2)cs1)[C@@H]1CCCN1C(=O)OCc1ccccc1 [Compound 5330, 2-{4-[4-(Cyclopropylmethyl-amino)-phenyl]-thiazol-2-ylcarbamoyl}-pyrrolidine-1-carboxylic acid benzyl ester]",98.8%
2,"Cc1sc2nc(SCc3csc(NC(=O)[C@@H]4CCCN4C(=O)OCc4ccccc4)n3)n(C)c(=O)c2c1C [Compound 5032, 2-[4-(3,5,6-Trimethyl-4-oxo-3,4-dihydro-thieno[2,3-d]pyrimidin-2-ylsulfanylmethyl)-thiazol-2-ylcarbamoyl]-pyrrolidine-1-carboxylic acid benzyl ester]",38.6%
3,"CC(=O)Nc1ccc(-c2csc(NC(=O)[C@@H]3CCCN3C(=O)OCc3ccccc3)n2)cc1 [Compound 5048, 2-[4-(4-Acetylamino-phenyl)-thiazol-2-ylcarbamoyl]-pyrrolidine-1-carboxylic acid benzyl ester]",100%
4,"Cc1ccc(-c2csc(NC(=O)[C@@H]3CCCN3C(=O)OCc3ccccc3)n2)cc1 [Compound 5022, 2-(4-p-Tolyl-thiazol-2-ylcarbamoyl)-pyrrolidine-1-carboxylic acid benzyl ester]",56%
5,"O=C(Nc1nc(-c2ccc(C(=O)N3CCOCC3)cc2)cs1)C1CCCN1C(=O)OCc1ccccc1 (centres unmarked) [Compound 5364, 2-{4-[4-(Morpholine-4-carbonyl)-phenyl]-thiazol-2-ylcarbamoyl}-pyrrolidine-1-carboxylic acid benzyl ester]",4.49%
6,"O=C1CC(c2csc(NC(=O)[C@@H]3CCCN3C(=O)OCc3ccccc3)n2)C2(CCCCC2)O1 (some centres unmarked) [Compound 5044, 2-[4-(2-Oxo-1-oxa-spiro[4.5]dec-4-yl)-thiazol-2-ylcarbamoyl]-pyrrolidine-1-carboxylic acid benzyl ester]",16.9%
7,"O=C(NC1CC1)c1ccc(-c2csc(NC(=O)[C@@H]3CCCN3C(=O)NCc3ccccc3)n2)cc1 [Compound 5342, Pyrrolidine-1,2-dicarboxylic acid 1-benzylamide 2-{[4-(4-cyclopropylcarbamoyl-phenyl)-thiazol-2-yl]-amide}]",95.2%
8,"O=C(Nc1nc(-c2ccc(F)c(F)c2)cs1)[C@@H]1CCCN1C(=O)OCc1ccccc1 [Compound 5056, 2-[4-(3,4-Difluoro-phenyl)-thiazol-2-ylcarbamoyl]-pyrrolidine-1-carboxylic acid benzyl ester]",99.3%
9,"COc1ccc2cc(-c3csc(NC(=O)[C@@H]4CCCN4C(=O)OCc4ccccc4)n3)c(=O)oc2c1 [Compound 5043, 2-[4-(7-Methoxy-2-oxo-2H-chromen-3-yl)-thiazol-2-ylcarbamoyl]-pyrrolidine-1-carboxylic acid benzyl ester]",3.61%
10,"O=C(Nc1cccc(-c2cnc(NC(=O)[C@@H]3CCCN3C(=O)OCc3ccccc3)s2)c1)c1ccccc1 [Compound 5113, 2-[5-(3-Benzoylamino-phenyl)-thiazol-2-ylcarbamoyl]-pyrrolidine-1-carboxylic acid benzyl ester]",99.7%
11,"O=C(Nc1ncc(Cc2ccccc2Cl)s1)[C@@H]1CCCN1C(=O)OCc1ccccc1 [Compound 5052, 2-[5-(2-Chloro-benzyl)-thiazol-2-ylcarbamoyl]-pyrrolidine-1-carboxylic acid benzyl ester]",1.2%
12,"O=C(Nc1ccc(-c2csc(NC(=O)[C@@H]3CCC(=O)N3C(=O)OCc3ccccc3)n2)cc1)C1CC1 [Compound 5366, 2-{4-[4-(Cyclopropanecarbonyl-amino)-phenyl]-thiazol-2-ylcarbamoyl}-5-oxo-pyrrolidine-1-carboxylic acid benzyl ester]",99.3%
13,"CC(C)Cc1ccc(-c2csc(NC(=O)[C@@H]3CCCN3C(=O)OCc3ccccc3)n2)cc1 [Compound 5102, 2-[4-(4-Isobutyl-phenyl)-thiazol-2-ylcarbamoyl]-pyrrolidine-1-carboxylic acid benzyl ester]",9.8%
14,"O=C(Nc1ccc(-c2csc(NC(=O)C3CCCN3C(=O)OCc3ccccc3)n2)cc1)C1CC1 (centres unmarked) [Compound 5018, 2-{4-[4-(Cyclopropanecarbonyl-amino)-phenyl]-thiazol-2-ylcarbamoyl}-pyrrolidine-1-carboxylic acid benzyl ester]",100%
15,"O=C(Nc1nc(-c2ccc(S(=O)(=O)NC3CCCC3)cc2)cs1)C1CCCN1C(=O)OCc1ccccc1 (centres unmarked) [Compound 5354, 2-[4-(4-Cyclopentylsulfamoyl-phenyl)-thiazol-2-ylcarbamoyl]-pyrrolidine-1-carboxylic acid benzyl ester]",87.5%
16,"O=C(Nc1ccc(-c2csc(NC(=O)C3CCCN3C(=O)OCc3ccccc3)n2)cc1)C1CCCC1 (centres unmarked) [Compound 5006, 2-{4-[4-(Cyclopentanecarbonyl-amino)-phenyl]-thiazol-2-ylcarbamoyl}-pyrrolidine-1-carboxylic acid benzyl ester]",99.9%
17,"O=C(Nc1nc(-c2c(F)cccc2F)cs1)[C@@H]1CCCN1C(=O)OCc1ccccc1 [Compound 5059, 2-[4-(2,6-Difluoro-phenyl)-thiazol-2-ylcarbamoyl]-pyrrolidine-1-carboxylic acid benzyl ester]",88%
18,"O=C(Nc1nc(-c2cccc([N+](=O)[O-])c2)cs1)[C@@H]1CCCN1C(=O)OCc1ccccc1 [Compound 5008, 2-[4-(3-Nitro-phenyl)-thiazol-2-ylcarbamoyl]-pyrrolidine-1-carboxylic acid benzyl ester; hydrobromide]",63%
19,"O=C(Nc1ccncc1)c1ccc(-c2csc(NC(=O)[C@@H]3CCCN3C(=O)OCc3ccccc3)n2)cc1 [Compound 5302, 2-{4-[4-(Pyridin-4-ylcarbamoyl)-phenyl]-thiazol-2-ylcarbamoyl}-pyrrolidine-1-carboxylic acid benzyl ester]",100%
20,"O=C(NC1CC1)c1ccc(-c2csc(NC(=O)[C@@H]3CCCN3C(=O)OCc3ccccc3)n2)cc1 [Compound 5096, 2-[4-(4-Cyclopropylcarbamoyl-phenyl)-thiazol-2-ylcarbamoyl]-pyrrolidine-1-carboxylic acid benzyl ester]",100%
21,"O=C(Nc1nc(-c2cccc(N(CC3CC3)CC3CC3)c2)cs1)[C@@H]1CCCN1C(=O)OCc1ccccc1 [Compound 5383, 2-{4-[3-(Bis-cyclopropylmethyl-amino)-phenyl]-thiazol-2-ylcarbamoyl}-pyrrolidine-1-carboxylic acid benzyl ester]",47%
22,"CCc1ccc(-c2csc(NC(=O)[C@@H]3CCCN3C(=O)OCc3ccccc3)n2)cc1 [Compound 5094, 2-[4-(4-Ethyl-phenyl)-thiazol-2-ylcarbamoyl]-pyrrolidine-1-carboxylic acid benzyl ester]",3.49%
23,"O=C(Nc1nc(COc2ccc(Cl)cc2)cs1)[C@@H]1CCCN1C(=O)OCc1ccccc1 [Compound 5045, 2-[4-(4-Chloro-phenoxymethyl)-thiazol-2-ylcarbamoyl]-pyrrolidine-1-carboxylic acid benzyl ester]",6.85%
24,"O=C(CCCCC1SCC2NC(=O)NC21)Nc1ccc(-c2csc(NC(=O)[C@@H]3CCCN3C(=O)OCc3ccccc3)n2)cc1 (some centres unmarked) [Compound 5093, 2-(4-{4-[5-(2-Oxo-hexahydro-thieno[3,4-d]imidazol-4-yl)-pentanoylamino]-phenyl}-thiazol-2-ylcarbamoyl)-pyrrolidine-1-carboxylic acid benzyl ester]",100%
25,"O=C(NC1CCNC1)c1ccc(-c2csc(NC(=O)[C@@H]3CCCN3C(=O)OCc3ccccc3)n2)cc1 (some centres unmarked) [Compound 5322, 2-{4-[4-(Pyrrolidin-3-ylcarbamoyl)-phenyl]-thiazol-2-ylcarbamoyl}-pyrrolidine-1-carboxylic acid benzyl ester]",100%
26,"Nc1ccc(-c2cnc(NC(=O)[C@@H]3CCCN3C(=O)OCc3ccccc3)s2)cc1 [Compound 5111, 2-[5-(4-Amino-phenyl)-thiazol-2-ylcarbamoyl]-pyrrolidine-1-carboxylic acid benzyl ester]",40%
27,"CC1(C)CC(c2csc(NC(=O)[C@@H]3CCCN3C(=O)OCc3ccccc3)n2)CCO1 (stereo in doubt) [Compound 5046, 2-[4-(2,2-Dimethyl-tetrahydro-pyran-4-yl)-thiazol-2-ylcarbamoyl]-pyrrolidine-1-carboxylic acid benzyl ester]",8.29%
28,"O=C(NC1CC1)c1ccc(-c2csc(NC(=O)[C@@H]3SCCN3C(=O)OCc3ccccc3)n2)cc1 [Compound 5350, 2-[4-(4-Cyclopropylcarbamoyl-phenyl)-thiazol-2-ylcarbamoyl]-thiazolidine-3-carboxylic acid benzyl ester]",100%
29,"O=C(NC1CC1)c1ccc(-c2csc(NC(=O)[C@@H]3CCCN3C(=O)Cc3ccccc3)n2)cc1 [Compound 5325, 1-Phenylacetyl-pyrrolidine-2-carboxylic acid [4-(4-cyclopropylcarbamoyl-phenyl)-thiazol-2-yl]-amide]",86.9%
